# According to PubChem BioAssay AID192 (DTP/NCI, 2004):
# Values joined by “and” are separate entries in the source; they are usually repeats but may differ in a detail not shown here. Identical values can stand only once. Inconclusive results and toxic doses are left out.
# Tested on: BDF1 mice, B16 melanoma ip, median survival T/C
# Assay: NCI In Vivo Anticancer Drug Screen. Data for tumor model B16 Melanoma (intraperitoneal) in B6D2F1 (BDF1) mice
# Conditions: endpoint: median survival time, higher = longer survival
# Summary of the method: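 Each result divides a survival or tumor-size measurement in the compound-treated group by the same measurement in the vehicle group.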
# [1] = dose: 100.0 mg/kg/injection, schedule: Q01DX009 (ip), vehicle: saline with Tween-80
# [2] = dose: 25.0 mg/kg/injection, schedule: Q01DX009 (ip), vehicle: Klucel (hydroxypropylcellulose) (HPC)
# [3] = dose: 50.0 mg/kg/injection, schedule: Q01DX009 (ip), vehicle: Klucel (hydroxypropylcellulose) (HPC)
# [4] = dose: 100.0 mg/kg/injection, schedule: Q01DX009 (ip), vehicle: Klucel (hydroxypropylcellulose) (HPC)
# [5] = dose: 200.0 mg/kg/injection, schedule: Q01DX009 (ip), vehicle: Klucel (hydroxypropylcellulose) (HPC)
# [6] = dose: 400.0 mg/kg/injection, schedule: Q01DX009 (ip), vehicle: Klucel (hydroxypropylcellulose) (HPC)
# [7] = dose: 25.0 mg/kg/injection, schedule: Q01DX009 (ip), vehicle: saline with Tween-80
# [8] = dose: 50.0 mg/kg/injection, schedule: Q01DX009 (ip), vehicle: saline with Tween-80
# [9] = dose: 50.0 mg/kg/injection, schedule: Q01DX009 (ip), vehicle: saline
# [10] = dose: 200.0 mg/kg/injection, schedule: Q01DX009 (ip), vehicle: saline
smiles,measurement,setting,value
CCOC(=O)CCC[P+](c1ccccc1)(c1ccccc1)c1ccccc1,T/C,"dose: 5.0 mg/kg/injection, schedule: Q01DX009 (ip), vehicle: saline with Tween-80",117 % of control
same,T/C,"dose: 20.0 mg/kg/injection, schedule: Q01DX009 (ip), vehicle: saline with Tween-80",117 % of control
same,T/C,"dose: 40.0 mg/kg/injection, schedule: Q01DX009 (ip), vehicle: saline with Tween-80",121 % of control
same,T/C,"dose: 66.0 mg/kg/injection, schedule: Q01DX009 (ip), vehicle: saline with Tween-80",116 % of control
same,T/C,"dose: 80.0 mg/kg/injection, schedule: Q01DX009 (ip), vehicle: saline with Tween-80",113 % of control
same,T/C,[1],100 % of control
same,T/C,"dose: 140.0 mg/kg/injection, schedule: Q01DX009 (ip), vehicle: saline with Tween-80",112 % of control
same,T/C,"dose: 160.0 mg/kg/injection, schedule: Q01DX009 (ip), vehicle: saline with Tween-80",116 % of control
same,T/C,"dose: 210.0 mg/kg/injection, schedule: Q01DX009 (ip), vehicle: saline with Tween-80",104 % of control
C=CCOP(=O)(OCC=C)OCC=C,T/C,[2],96 % of control
same,T/C,[3],100 % of control
Nc1ccccc1SC1CC(=O)N(c2ccccc2)C1=O (configuration not stated),T/C,[2],97 % of control
same,T/C,[3],91 % of control
same,T/C,[4],90 % of control and 92 % of control
CC1(c2ccc(O)cc2)CCC(C(C)(C)c2ccc(O)cc2)CC1 (configuration not stated),T/C,[3],87 % of control
same,T/C,[4],96 % of control
same,T/C,[5],91 % of control
CCCCC1(CC)COC(C)(c2ccccc2)OC1 (configuration not stated),T/C,"dose: 75.0 mg/kg/injection, schedule: Q01DX009 (ip), vehicle: saline with Tween-80",108 % of control
same,T/C,"dose: 150.0 mg/kg/injection, schedule: Q01DX009 (ip), vehicle: saline with Tween-80",106 % of control
same,T/C,"dose: 300.0 mg/kg/injection, schedule: Q01DX009 (ip), vehicle: saline with Tween-80",98 % of control
CC(=O)Nc1ccc(C#N)c2ccccc12,T/C,[4],124 % of control
same,T/C,[5],111 % of control
same,T/C,[6],111 % of control
COc1ccc2c(c1Oc1ccc([N+](=O)[O-])cc1[N+](=O)[O-])C13CCN(C)C(C2)C1CCC1(C3)OCCO1 (configuration not stated),T/C,[4],111 % of control
same,T/C,[5],86 % of control
O=C(Nc1ccc([N+](=O)[O-])cc1)Nc1nccs1,T/C,"dose: 50.0 mg/kg/injection, schedule: Q01DX009 (ip), vehicle: distilled water + Tween-80",152 % of control
S=C1NC(c2ccccc2)NC(c2ccccc2)S1 (configuration not stated),T/C,"dose: 100.0 mg/kg/injection, schedule: Q01DX009 (ip), vehicle: other",100 % of control
same,T/C,"dose: 200.0 mg/kg/injection, schedule: Q01DX009 (ip), vehicle: other",94 % of control
same,T/C,"dose: 400.0 mg/kg/injection, schedule: Q01DX009 (ip), vehicle: other",86 % of control
CC(C)(C)OC(=O)N1CCCC1C(=O)Oc1ccc([N+](=O)[O-])cc1 (configuration not stated),T/C,"dose: 25.0 mg/kg/injection, schedule: Q04DX003 (ip), vehicle: saline with Tween-80",94 % of control
same,T/C,"dose: 50.0 mg/kg/injection, schedule: Q04DX003 (ip), vehicle: saline with Tween-80",109 % of control
same,T/C,"dose: 100.0 mg/kg/injection, schedule: Q04DX003 (ip), vehicle: saline with Tween-80",104 % of control
Cc1cc2ncn(CC(=O)O)c2cc1C,T/C,[7],95 % of control
same,T/C,[8],97 % of control
same,T/C,[1],97 % of control
Nc1ccn([C@@H](C=O)O[C@@H](C=O)CO)c(=O)n1,T/C,"dose: 6.25 mg/kg/injection, schedule: Q01DX009 (ip), vehicle: saline",100 % of control and 112 % of control
same,T/C,"dose: 12.5 mg/kg/injection, schedule: Q01DX009 (ip), vehicle: saline",101 % of control and 102 % of control
same,T/C,"dose: 25.0 mg/kg/injection, schedule: Q01DX009 (ip), vehicle: saline",91 % of control and 109 % of control
same,T/C,[9],99 % of control and 103 % of control
same,T/C,"dose: 100.0 mg/kg/injection, schedule: Q01DX009 (ip), vehicle: saline",107 % of control and 112 % of control
same,T/C,[10],113 % of control
CC1=C(/C=C/C(C)=C/C=C/C(C)=C/C=O)C(C)(C)CCC1,T/C,"dose: 16.0 mg/kg/injection, schedule: Q01DX005 (ip), vehicle: DMSO",94 % of control
same,T/C,"dose: 32.0 mg/kg/injection, schedule: Q01DX005 (ip), vehicle: DMSO",88 % of control
same,T/C,"dose: 64.0 mg/kg/injection, schedule: Q01DX005 (ip), vehicle: DMSO",89 % of control
COC(=O)C1C(O)C(C)C(O)C(C)(O)C=C(C)C2=C3C(=C(C)C(=O)c4c(O)c(c(C)c(OC(C)=O)c43)NC(=O)C(C)=C/C=C\C(C)(O)C(O)C(C)C1O)OCO2 (configuration not stated),T/C,[3],94 % of control
same,T/C,[4],94 % of control
same,T/C,[5],91 % of control
CCNCCC#N,T/C,"dose: 80.0 mg/kg/injection, schedule: Q01DX009 (ip), vehicle: saline",113 % of control
same,T/C,"dose: 160.0 mg/kg/injection, schedule: Q01DX009 (ip), vehicle: saline",119 % of control
same,T/C,"dose: 320.0 mg/kg/injection, schedule: Q01DX009 (ip), vehicle: saline",105 % of control
O=C(OC1C(O)OC2COC(=O)c3cc(O)c(O)c(O)c3-c3c(cc(O)c(O)c3O)C(=O)OC2C1O)c1cc(O)c(O)c(O)c1 (configuration not stated),T/C,"dose: 3.75 mg/kg/injection, schedule: Q01DX009 (ip), vehicle: saline",99 % of control
same,T/C,"dose: 7.5 mg/kg/injection, schedule: Q01DX009 (ip), vehicle: saline",112 % of control
CC1=C/C(=N\NS(=O)(=O)c2ccc([N+](=O)[O-])cc2)CC(C)(C)C1,T/C,[3],94 % of control
same,T/C,[4],93 % of control
same,T/C,[5],96 % of control
same,T/C,[6],88 % of control
NC(=S)n1cccn1,T/C,[7],96 % of control
same,T/C,[8],114 % of control
same,T/C,[1],94 % of control
COc1cc2c(c(OC)c1OC)-c1ccc(OC)c(=O)cc1C(NC(=O)COc1ccccc1)CC2 (configuration not stated),T/C,"dose: 1.25 mg/kg/injection, schedule: Q01DX009 (ip), vehicle: Klucel (hydroxypropylcellulose) (HPC)",175 % of control
same,T/C,"dose: 2.5 mg/kg/injection, schedule: Q01DX009 (ip), vehicle: Klucel (hydroxypropylcellulose) (HPC)",188 % of control
NC(=O)/C=C/C(=O)c1c(Cl)cccc1Cl,T/C,"dose: 0.78 mg/kg/injection, schedule: Q01DX009 (ip), vehicle: saline with Tween-80",103 % of control
same,T/C,"dose: 1.56 mg/kg/injection, schedule: Q01DX009 (ip), vehicle: saline with Tween-80",106 % of control
same,T/C,"dose: 3.12 mg/kg/injection, schedule: Q01DX009 (ip), vehicle: saline with Tween-80",112 % of control
O=C(CCCN1CC=C(n2c(=O)[nH]c3ccccc32)CC1)c1ccc(F)cc1,T/C,"dose: 3.12 mg/kg/injection, schedule: Q01DX009 (ip), vehicle: Klucel (hydroxypropylcellulose) (HPC)",92 % of control
same,T/C,"dose: 6.25 mg/kg/injection, schedule: Q01DX009 (ip), vehicle: Klucel (hydroxypropylcellulose) (HPC)",92 % of control and 95 % of control
same,T/C,"dose: 12.5 mg/kg/injection, schedule: Q01DX009 (ip), vehicle: Klucel (hydroxypropylcellulose) (HPC)",98 % of control
same,T/C,[2],90 % of control and 95 % of control
same,T/C,[3],97 % of control
same,T/C,[4],93 % of control
same,T/C,[5],95 % of control
CO[C@H]1/C=C/O[C@@]2(C)Oc3c(C)c(O)c4c(O)c(c(/C=N/N5C(C)CN(Cc6ccccc6)CC5C)c(O)c4c3C2=O)NC(=O)/C(C)=C\C=C\[C@H](C)[C@H](O)[C@@H](C)[C@@H](O)[C@@H](C)[C@H](OC(C)=O)[C@@H]1C (some centres not stated),T/C,"dose: 8.0 mg/kg/injection, schedule: Q03HX008 (ip), vehicle: clinical formulation",94 % of control
same,T/C,"dose: 8.0 mg/kg/injection, schedule: Q03HX024 (ip), vehicle: clinical formulation",88 % of control
same,T/C,"dose: 16.0 mg/kg/injection, schedule: Q03HX008 (ip), vehicle: clinical formulation",90 % of control
same,T/C,"dose: 25.0 mg/kg/injection, schedule: Q02DX Z (oral), vehicle: Klucel (hydroxypropylcellulose) (HPC)",98 % of control
same,T/C,"dose: 32.0 mg/kg/injection, schedule: Q03HX024 (ip), vehicle: clinical formulation",88 % of control
same,T/C,[9],123 % of control
same,T/C,"dose: 50.0 mg/kg/injection, schedule: Q02DX Z (oral), vehicle: Klucel (hydroxypropylcellulose) (HPC)",116 % of control
same,T/C,"dose: 64.0 mg/kg/injection, schedule: Q04DX005 (ip), vehicle: clinical formulation",93 % of control
same,T/C,"dose: 64.0 mg/kg/injection, schedule: Q08DX003 (ip), vehicle: clinical formulation",91 % of control
same,T/C,"dose: 100.0 mg/kg/injection, schedule: Q02DX Z (oral), vehicle: Klucel (hydroxypropylcellulose) (HPC)",103 % of control
same,T/C,[10],110 % of control
same,T/C,"dose: 200.0 mg/kg/injection, schedule: Q02DX Z (oral), vehicle: Klucel (hydroxypropylcellulose) (HPC)",114 % of control
same,T/C,"dose: 256.0 mg/kg/injection, schedule: Q01DX001 (ip), vehicle: clinical formulation",86 % of control
same,T/C,"dose: 400.0 mg/kg/injection, schedule: Q02DX Z (oral), vehicle: Klucel (hydroxypropylcellulose) (HPC)",88 % of control
same,T/C,"dose: 800.0 mg/kg/injection, schedule: Q02DX Z (oral), vehicle: Klucel (hydroxypropylcellulose) (HPC)",113 % of control
same,T/C,"dose: 1600.0 mg/kg/injection, schedule: Q02DX Z (oral), vehicle: Klucel (hydroxypropylcellulose) (HPC)",97 % of control
